# Laboratory results taken from patent US5523321A, “Prostacyclins, their analogs or prostaglandins and thromboxane antagonists for treatment of thrombotic and thromboembolic syndromes” (Schering Aktiengeselleschaft, priority 1985, dated 1996).
# Read-outs that look alike come from different tables or passages of the source.
# Tests used:
# [1] = test system: platelet aggregation induced by U 46 619 (human PRP); experiment: Thrombocyte function in vitro: aggregation by U 46 619 (human PRP); assay type: cell-based
# Protocol: (§1) 1. Thrombocyte Function In Vitro (Human PRP)
# (§2) BM 13 177 (in the text, BM) and Iloprost are tested in their action on thrombocyte aggregation and thrombocyte shape change against stimulants U 46 619 (9,11-dideoxy,9alpha-11alpha-methanoepoxy PGF2alpha, stable TXA2 agonist) and ADP and the IC50 values are determined. Then in several independent tests the action of a combination of the two substances on the aggregation (U 46 619 and ADP) in various concentrations is tested; especially the combination of low dosages and of dosages of the two substances in the range of the IC50 values is tested.
# (§3) Platelet aggregation and shape change are measured as light-optical phenomena in stimulated PRP (platelet rich plasma) samples. In this case, the shape change is detected as the density increase of the sample by transition of the discoid rest shape of the platelet into a spherozytic shape with formation of pseudopodlike membrane formations and represented on a recorder. The aggregation is photometrically detected as density […] by clumping and "precipitation" of platelet aggregates and represented on a recorder.
# [2] = test system: platelet shape change induced by U 46 619 (human PRP); experiment: Thrombocyte function in vitro: shape change by U 46 619 (human PRP); assay type: cell-based; conditions: for IC50: human PRP, stimulant U 46 619
# Protocol: as §1, §2, §3
# Example 2: Shape change by 50 ng/ml U 46 619
# [3] = test system: 2nd wave of aggregation induced by ADP (human PRP); experiment: Thrombocyte function in vitro: 2nd wave of aggregation by ADP (human PRP); assay type: cell-based; conditions: for % Inhibition (2nd wave of aggregation): 0.5×10^-6 M ADP; for IC50: human PRP, stimulant ADP
# Protocol: as §1, §2, §3
# Example 3: 2nd wave of aggregation by 0.5×10^-6 M ADP
# [4] = test system: intravascular thrombocyte aggregation (collagen-induced thrombocytopenia); experiment: Intravascular thrombocyte aggregation on anesthetized rats (collagen-induced thrombocytopenia); assay type: in vivo
# Excerpt: 2. Intravascular Thrombocyte Aggregation on Anesthetized Rats
# The influence of the intravascular thrombocyte aggregation is examined on urethane anesthetized rats.
# Collagen (100 micrograms/kg i.v. bolus) causes transitory thrombocytopenias (a transient loss of blood platelet concentration), measured by continuous taking of blood from the A. carotis (50 microliter/min) and thrombocyte counting in the Technicon Autocounter. The change of the collagen-induced thrombocytopenia (% of loss) in comparison with the initial value (=2nd collagen injection) serves as a measurement for the inhibition of the intravascular platelet aggregation.
# [5] = test system: mesenteric arteriole thrombosis (topical ADP); experiment: Mesenteric arteriole thrombosis on anesthetized guinea pigs; assay type: in vivo
# Protocol: 3. Mesenteric Arteriole Thrombosis on Anesthetized Guinea Pigs
# A mesenteric loop for vital microscopy is prepared on anesthetized guinea pigs. After electrical lesion of an arteriole, under controlled conditions and after substance application, ADP is applied topically until finding of a thrombogenic dose (occlusion by platelet thrombus).
# Parameters: increasing of the thrombogenic ADP concentration vs. initial value; i.v. infusion of Iloprost, i.v. injection of BM 13 177.
# jugular vein thrombosis = experiment: Jugular vein thrombosis on anesthetized rats; assay type: in vivo
# Protocol: 4. Jugular Vein Thrombosis on Anesthetized Rats
# By stressing of the jugular vein of rats anesthetized with urethane with a metal punch cooled to -15° C. (200 g, 2 min) the vessel is predamaged. The thrombus grown within 3 hours on this site is quantified (Hb content wet weight) by determinations of its Hb content (difference damaged-undamaged vessel segment).
# The infusion of the test substances begins 15 min before damaging the vein and is continued until the end of the test.
# [6] = Blood pressure of spontaneously hypertonic (SH) rats; conditions: Iloprost 0.3 microgram/kg/min (threshold dose), awake SH rats
structure (smiles),measurement,setting,value
"O=C(O)COc1ccc(CCNS(=O)(=O)c2ccccc2)cc1 [BM 13 177, 4-[2-(benzenesulfonamido)-ethyl]-phenoxyacetic acid]",IC50,"[1]; BM 13 177, human PRP, stimulant U 46 619, read-out: IC50 for the aggregation",1650 to 6600 nM
same,inhibition at 0.66 µM,"[1]; Homo sapiens, 0.66 microM BM 13 177, 100 ng/ml U 46 619",16%
same,inhibition at 0.66 µM,"[2]; Homo sapiens, Platelet, 0.66 microM BM 13 177, 50 ng/ml U 46 619",28%
same,IC50,"[2]; Platelet, BM 13 177, read-out: IC50 for the shape change",1650 to 3300 nM
same,% Inhibition (2nd wave of aggregation),[3]; 0.165 microM BM 13 177,no inhibition
same,IC50,[3]; BM 13 177,330 to 660 nM
same,inhibition of collagen-induced thrombocytopenia,"[4]; BM 13 177 0.5 mg/kg/min (lowest dosage), MW±SE",about 27±6%
same,platelet inhibition in vivo,[4]; BM 13 177 2 mg/kg i.v. infusion,27%
same,inhibition of collagen-induced thrombocytopenia on raising the dosage (in words),[4]; BM 13 177 1.0-2.0 mg/kg/min,cannot be increased by raising the dosage
same,increase of thrombogenic ADP concentration (factor),"[5]; BM 13 177 25 mg/kg i.v., significant",~4
same,"antithrombotic effect, Hb content of thrombi (in words)","jugular vein thrombosis; BM 13 177 20 mg/kg i.v. bolus + 50 micrograms/kg/min i.v., monotherapy",ineffective
same,antithrombotic effect (in words),jugular vein thrombosis; BM 13 177 as monotherapy,not antithrombotically effective
CC#CCC(C)[C@H](O)/C=C/[C@@H]1[C@H]2C/C(=C/CCCC(=O)O)C[C@H]2C[C@H]1O (stereo partly shown) [Iloprost],inhibition at 0.0001 µg/mL,"[1]; Homo sapiens, 0.1 ng/ml Iloprost, 100 ng/ml U 46 619",2%
same,IC50,"[1]; Iloprost, human PRP, stimulant U 46 619, read-out: IC50 for the aggregation inhibition",1.3 to 2.6 nM
same,% Inhibition (shape change),"[2]; 0.1 ng/ml Iloprost, 50 ng/ml U 46 619",no inhibition
same,IC50,"[2]; Platelet, Iloprost, read-out: IC50 for the shape change inhibition",0.52 to 1.3 nM
same,% Inhibition (2nd wave of aggregation),[3]; 0.1 ng/ml Iloprost,no inhibition
same,IC50,[3]; Iloprost,0.26 to 0.65 nM
same,inhibition of collagen-induced thrombocytopenia (in words),[4]; Iloprost 0.1-0.33-1.0 micrograms/kg/min,"inhibits the collagen-induced thrombocytopenia, depending on the dose"
same,increase of thrombogenic ADP concentration (factor),[5]; Iloprost 0.1 microgram/kg/min i.v. (threshold dose),2.8
same,"antithrombotic effect, Hb content of thrombi (in words)","jugular vein thrombosis; Iloprost 30 ng/kg/min i.v., individual dose",not significantly effective
same,reduction of diastolic blood pressure,[6],20%
